Source: PubChem BioAssay AID248 (DTP/NCI, 2004)
Where “and” joins values, the source holds several entries; their conditions need not be identical. Equal values may be shown once. Inconclusive results and toxic doses are left out. Rule as the data show it: active = T/C of 150% or more; inactive = T/C below 125%.

Tested on: L1210 leukemia ip in BDF1 mice, survival T/C
Assay: NCI In Vivo Anticancer Drug Screen. Data for tumor model L1210 Leukemia (intraperitoneal) in B6D2F1 (BDF1) mice
Details: endpoint: mean survival time, higher = longer survival
Procedure, shortened: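 Value reflects the ratio of survival in compound-treated mice to survival in vehicle-treated controls, with both groups carrying the same transplanted tumor.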

[1] = dose: 20.0 mg/kg/injection, schedule: Q04DX003 (ip), vehicle: saline
[2] = dose: 40.0 mg/kg/injection, schedule: Q04DX003 (ip), vehicle: saline
[3] = dose: 100.0 mg/kg/injection, schedule: Q01DX009 (ip), vehicle: Klucel (hydroxypropylcellulose) (HPC)
[4] = dose: 200.0 mg/kg/injection, schedule: Q01DX009 (ip), vehicle: Klucel (hydroxypropylcellulose) (HPC)
[5] = dose: 400.0 mg/kg/injection, schedule: Q01DX009 (ip), vehicle: Klucel (hydroxypropylcellulose) (HPC)
[6] = dose: 100.0 mg/kg/injection, schedule: Q04DX003 (ip), vehicle: saline with Tween-80
[7] = dose: 200.0 mg/kg/injection, schedule: Q04DX003 (ip), vehicle: saline with Tween-80
[8] = dose: 400.0 mg/kg/injection, schedule: Q04DX003 (ip), vehicle: saline with Tween-80
[9] = dose: 50.0 mg/kg/injection, schedule: Q01DX009 (ip), vehicle: saline with Tween-80
[10] = dose: 100.0 mg/kg/injection, schedule: Q01DX009 (ip), vehicle: saline with Tween-80
[11] = dose: 200.0 mg/kg/injection, schedule: Q01DX001 (ip), vehicle: saline with Tween-80
[12] = dose: 400.0 mg/kg/injection, schedule: Q01DX001 (ip), vehicle: saline with Tween-80
[13] = dose: 100.0 mg/kg/injection, schedule: Q04DX003 (ip), vehicle: saline
[14] = dose: 100.0 mg/kg/injection, schedule: Q01DX001 (ip), vehicle: saline
[15] = dose: 200.0 mg/kg/injection, schedule: Q01DX001 (ip), vehicle: saline
[16] = dose: 400.0 mg/kg/injection, schedule: Q01DX001 (ip), vehicle: saline

Measured: T/C

C1OCOCO1
inactive: dose: 25.0 mg/kg/injection, schedule: Q01DX009 (ip), vehicle: saline 92 % of control | dose: 50.0 mg/kg/injection, schedule: Q01DX009 (ip), vehicle: saline 97 % of control | dose: 100.0 mg/kg/injection, schedule: Q01DX009 (ip), vehicle: saline 95 % of control | dose: 200.0 mg/kg/injection, schedule: Q01DX009 (ip), vehicle: saline 97 % of control

O=[N+]([O-])c1cccc(N(c2ccccc2)c2ccccc2)c1
inactive: dose: 100.0 mg/kg/injection, schedule: Q01DX001 (ip), vehicle: carboxymethylcellulose (CMC) 108 % of control | dose: 200.0 mg/kg/injection, schedule: Q01DX001 (ip), vehicle: carboxymethylcellulose (CMC) 108 % of control | dose: 400.0 mg/kg/injection, schedule: Q01DX001 (ip), vehicle: carboxymethylcellulose (CMC) 100 % of control

CN1CCN(c2nn3nnnc3c3ccccc23)CC1
inactive: [1] 98 % of control | [2] 104 % of control | dose: 80.0 mg/kg/injection, schedule: Q04DX003 (ip), vehicle: saline 95 % of control

Nc1ccccc1Sc1c(N)cc2c3c(cccc13)C(=O)NC2=O
inactive: [3] 90 % of control | [4] 90 % of control | [5] 94 % of control

COc1cc(Oc2c(OC)cc(N)cc2OC)cc(OC)c1OC
inactive: [6] 97 % of control | [7] 95 % of control | [8] 95 % of control

CC/C(C[n+]1ccccc1)=N\Nc1ccc([N+](=O)[O-])cc1[N+](=O)[O-]
inactive: dose: 5.0 mg/kg/injection, schedule: Q01DX001 (ip), vehicle: acetone 102 % of control | dose: 10.0 mg/kg/injection, schedule: Q01DX001 (ip), vehicle: acetone 100 % of control | dose: 20.0 mg/kg/injection, schedule: Q01DX001 (ip), vehicle: acetone 103 % of control | [1] 103 % of control | dose: 40.0 mg/kg/injection, schedule: Q01DX001 (ip), vehicle: acetone 108 % of control | [2] 95 % of control | dose: 80.0 mg/kg/injection, schedule: Q01DX001 (ip), vehicle: acetone 100 % of control

O=C1C=CC(=NCC(=O)OCc2ccccc2)O1
inactive: dose: 200.0 mg/kg/injection, schedule: Q04DX003 (ip), vehicle: acetone 91 % of control | dose: 400.0 mg/kg/injection, schedule: Q04DX003 (ip), vehicle: acetone 90 % of control

ClC1=C(Cl)[C@@]2(Cl)[C@H]3[C@H]4C[C@H]([C@@H]5O[C@H]45)[C@H]3[C@@]1(Cl)C2(Cl)Cl
inactive: dose: 1.0 mg/kg/injection, schedule: Q01DX009 (ip), vehicle: acetone 102 % of control | dose: 2.0 mg/kg/injection, schedule: Q01DX009 (ip), vehicle: acetone 93 % of control | dose: 4.0 mg/kg/injection, schedule: Q01DX009 (ip), vehicle: acetone 96 % of control | dose: 8.0 mg/kg/injection, schedule: Q01DX009 (ip), vehicle: acetone 86 % of control | dose: 25.0 mg/kg/injection, schedule: Q01DX001 (ip), vehicle: acetone 102 % of control

c1ccc([CH2][Pb]([c]2ccccc2)([c]2ccccc2)[c]2ccccc2)cc1
inactive: dose: 25.0 mg/kg/injection, schedule: Q01DX009 (ip), vehicle: saline with Tween-80 93 % of control | [9] 94 % of control | [10] 96 % of control | [11] 108 % of control | [12] 97 % of control

C[S+](C)Cc1ccccc1
inactive: dose: 50.0 mg/kg/injection, schedule: Q04DX003 (ip), vehicle: saline 96 % of control | dose: 100.0 mg/kg/injection, schedule: Q01DX009 (ip), vehicle: other 93 % of control | [13] 100 % of control

COC(=O)C1C(=O)C(C(=O)OC)C(C)N(C)C1C (configuration not stated)
inactive: dose: 9.38 mg/kg/injection, schedule: Q01DX001 (ip), vehicle: other 98 % of control | dose: 18.75 mg/kg/injection, schedule: Q01DX001 (ip), vehicle: other 104 % of control | dose: 37.5 mg/kg/injection, schedule: Q01DX001 (ip), vehicle: other 95 % of control

C(=N\Nc1c2ccccc2nc2ccccc12)/c1ccc2c(c1)OCO2
inactive: [14] 89 % of control | [15] 100 % of control | [16] 89 % of control

COc1ccc(COC2C(CO)OC(n3ccc(N)nc3=O)C2O)cc1 (configuration not stated)
inactive: dose: 100.0 mg/kg/injection, schedule: Q01DX005 (ip), vehicle: saline 100 % of control | dose: 200.0 mg/kg/injection, schedule: Q01DX005 (ip), vehicle: saline 94 % of control

CCCCCCCCC(=O)N1CCCCC1C (configuration not stated)
inactive: dose: 100.0 mg/kg/injection, schedule: Q04DX002 (ip), vehicle: Klucel (hydroxypropylcellulose) (HPC) 96 % of control | dose: 200.0 mg/kg/injection, schedule: Q04DX002 (ip), vehicle: Klucel (hydroxypropylcellulose) (HPC) 100 % of control | dose: 400.0 mg/kg/injection, schedule: Q04DX002 (ip), vehicle: Klucel (hydroxypropylcellulose) (HPC) 88 % of control

CC(OC(=O)Nc1ccc(S(=O)(=O)NC2CCCCC2)cc1)(c1ccccc1)C1CCCCC1 (configuration not stated)
inactive: [14] 105 % of control | [15] 105 % of control | [16] 100 % of control

BrC1C2CC3C1C3C2c1ccccc1 (configuration not stated)
inactive: [3] 117 % of control | dose: 100.0 mg/kg/injection, schedule: Q04DX003 (ip), vehicle: Klucel (hydroxypropylcellulose) (HPC) 103 % of control | [4] 109 % of control | dose: 200.0 mg/kg/injection, schedule: Q04DX003 (ip), vehicle: Klucel (hydroxypropylcellulose) (HPC) 107 % of control | [5] 107 % of control | dose: 400.0 mg/kg/injection, schedule: Q04DX003 (ip), vehicle: Klucel (hydroxypropylcellulose) (HPC) 103 % of control

O=C(NC(=S)Nc1cccc2c(O)cccc12)c1ccc(Cl)cc1Cl
inactive: dose: 100.0 mg/kg/injection, schedule: Q01DX001 (ip), vehicle: saline with Tween-80 105 % of control | [10] 98 % of control and 90 % of control | dose: 100.0 mg/kg/injection, schedule: Q04DX002 (ip), vehicle: saline with Tween-80 95 % of control and 98 % of control | [6] 103 % of control | [11] 103 % of control | dose: 200.0 mg/kg/injection, schedule: Q01DX009 (ip), vehicle: saline with Tween-80 97 % of control and 117 % of control | dose: 200.0 mg/kg/injection, schedule: Q04DX002 (ip), vehicle: saline with Tween-80 101 % of control and 106 % of control | [7] 92 % of control | [12] 106 % of control | dose: 400.0 mg/kg/injection, schedule: Q01DX009 (ip), vehicle: saline with Tween-80 94 % of control and 98 % of control | dose: 400.0 mg/kg/injection, schedule: Q04DX002 (ip), vehicle: saline with Tween-80 95 % of control and 90 % of control | [8] 94 % of control

CC(C(c1ccccc1)c1ccc(Cl)cc1)[N+](=O)[O-] (configuration not stated)
inactive: dose: 22.0 mg/kg/injection, schedule: Q01DX009 (ip), vehicle: saline with Tween-80 102 % of control | dose: 33.0 mg/kg/injection, schedule: Q01DX009 (ip), vehicle: saline with Tween-80 96 % of control | [9] 94 % of control | dose: 75.0 mg/kg/injection, schedule: Q01DX009 (ip), vehicle: saline with Tween-80 112 % of control | [14] 87 % of control | [10] 103 % of control | [6] 95 % of control | [13] 102 % of control | [15] 95 % of control | [7] 102 % of control | dose: 200.0 mg/kg/injection, schedule: Q04DX003 (ip), vehicle: saline 89 % of control | [16] 88 % of control
